{
  "source": "patent US9156877B2",
  "about": "“17-hydroxy-17-pentafluorethyl-estra-4,9(10)-dien-11-benzylidene derivatives, methods for the production thereof and use thereof for treating diseases” (Bayer Intellectual Property GmbH, priority 2009, dated 2015)",
  "origin": "cited, not measured here",
  "key": {"[1]": {"conditions": "compared to the compounds of the invention; cited from earlier work"}, "[2]": {"conditions": "compared to the compounds of the invention; cited from earlier work", "remark": "listed apart in the source"}},
  "data": [
    {"smiles": "CC(=O)c1ccc(C2CC3(C)C(CCC3(O)C(F)(F)C(F)(F)F)C3CCC4=CC(=O)CCC4=C23)cc1", "note": "(stereo not drawn) [11-β-(4-acetylphenyl)-20,20,21,21,21-pentafluoro-17-hydroxynor-17-pregna-4,9-dien-3-one]", "values": [
      {"measurement": "in vivo half-life (in words)", "setting": "[1]", "result": "relatively short"},
      {"measurement": "water solubility (in words)", "setting": "[2]", "result": "poor"}
    ]}
  ]
}
